In patent US8541380B2, “C-aryl glucoside SGLT2 inhibitors and pharmaceutical compositions comprising same” (Green Cross Corporation, priority 2009, dated 2013):

Molecular target: human SGLT2 (Homo sapiens (Human), UniProt P31639)
Test: hSGLT2 inhibitory activity, sodium-dependent 14C-AMG glucose transport assay in CHO cells expressing hSGLT2
Assay type: cell-based
Conditions: 14C-AMG uptake, CHO cells expressing hSGLT2, 37° C. for 2 h
Excerpt: Human SGLT2 (hSGLT2) gene was amplified by PCR from cDNA-Human Adult Normal Tissue Kidney (Invitrogen, Carlsbad, Calif.). The hSGLT2 sequence was cloned into pcDNA3.1(+) for mammalian expression and were stably transfected into Chinese hamster ovary (CHO) cells. SGLT2-expressing clones were selected based on resistance to G418 antibiotic (Geneticin®, Invitrogen, Carlsbad, Calif.) and activity in the ^14C-α-methyl-D-glucopyranoside (^14C-AMG) uptake assay.
For sodium-dependent glucose transport assay, cells expressing hSGLT2 were seeded into a 96-well culture plate at a density of 5×10^4 cells/well in RPMI medium 1640 containing 10% fetal bovine serum. The cells were used 1 day after plating. They were incubated in pretreatment buffer (10 mM HEPES, 5 mM Tris, 140 mM choline chloride, 2 mM KCl, 1 mM CaCl2, and 1 mM MgCl2, pH 7.4) at 37° C. for 10 min. They were then incubated in uptake buffer (10 mM HEPES, 5 mM Tris, 140 mM NaCl, 2 mM KCl, 1 mM CaCl2, 1 mM MgCl2, and 1 mM ^14C-nonlabeled AMG pH 7.4) containing ^14C-labeled (8 uM) and inhibitor or dimethyl sulfoxide (DMSO) vehicle at 37° C. for 2 h. Cells were washed twice with washing buffer (pretreatment buffer containing 10 mM AMG at room temperature) and then the radioactivity was measured using a liquid scintillation counter.

Sequence of human SGLT2 (P31639 whole entry): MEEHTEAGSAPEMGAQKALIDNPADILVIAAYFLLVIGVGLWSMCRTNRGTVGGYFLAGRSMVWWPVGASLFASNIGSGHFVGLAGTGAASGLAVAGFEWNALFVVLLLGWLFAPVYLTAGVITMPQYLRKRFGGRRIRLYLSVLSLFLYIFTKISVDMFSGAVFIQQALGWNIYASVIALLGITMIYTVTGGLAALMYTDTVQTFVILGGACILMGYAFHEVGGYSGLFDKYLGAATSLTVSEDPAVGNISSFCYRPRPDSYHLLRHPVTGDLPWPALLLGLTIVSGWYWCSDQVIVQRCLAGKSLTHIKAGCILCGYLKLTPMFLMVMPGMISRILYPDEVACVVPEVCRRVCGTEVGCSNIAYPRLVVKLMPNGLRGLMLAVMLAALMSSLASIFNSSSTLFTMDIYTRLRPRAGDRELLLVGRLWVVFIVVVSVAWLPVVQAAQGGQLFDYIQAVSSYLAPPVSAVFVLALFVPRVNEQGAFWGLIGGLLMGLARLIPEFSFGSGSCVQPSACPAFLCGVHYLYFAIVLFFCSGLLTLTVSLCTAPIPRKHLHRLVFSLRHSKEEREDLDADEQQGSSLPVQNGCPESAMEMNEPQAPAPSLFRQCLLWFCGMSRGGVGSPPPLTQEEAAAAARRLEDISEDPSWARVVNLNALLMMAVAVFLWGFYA

Row | SMILES | IC50 [nM]
1 | Cc1ccc(-c2nnc(Cc3cc([C@@H]4O[C@H](CO)[C@@H](O)[C@H](O)[C@H]4O)ccc3Cl)s2)o1 [Example 2, (2S,3R,4R,5S,6R)-2-(4-Chloro-3-((5-(5-methylfuran-2-yl)-1,3,4-thiadiazol-2-yl)methyl)phenyl)-6-(hydroxymethyl)-tetrahydro-2H-pyran-3,4,5-triol] | 58.3
2 | Cn1cccc1-c1nnc(Cc2cc([C@@H]3O[C@H](CO)[C@@H](O)[C@H](O)[C@H]3O)ccc2Cl)s1 [Example 11, (2S,3R,4R,5S,6R)-2-(4-Chloro-3-((5-(1-methyl-1H-pyrrol-2-yl)-1,3,4-thiadiazol-2-yl)methyl)phenyl)-6-(hydroxymethyl)-tetrahydro-2H-pyran-3,4,5-triol] | 119
3 | Cc1ccc(-c2nnc(Cc3cc([C@@H]4O[C@H](CO)[C@@H](O)[C@H](O)[C@H]4O)ccc3Cl)s2)cn1 [Example 16, (2S,3R,4R,5S,6R)-2-(4-Chloro-3-((5-(6-methylpyridin-3-yl)-1,3,4-thiadiazol-2-yl)methyl)phenyl)-6-(hydroxymethyl)-tetrahydro-2H-pyran-3,4,5-triol] | 97.4
4 | OC[C@H]1O[C@@H](c2ccc(Cl)c(Cc3nnc(-c4ccc5ccccc5n4)s3)c2)[C@H](O)[C@@H](O)[C@@H]1O [Example 17, (2S,3R,4R,5S,6R)-2-(4-Chloro-3-((5-(quinolin-2-yl)-1,3,4-thiadiazol-2-yl)methyl)phenyl)-6-(hydroxymethyl)-tetrahydro-2H-pyran-3,4,5-triol] | 562
5 | OC[C@H]1O[C@@H](c2ccc(Cl)c(Cc3nnc(-c4ccc(-c5ccccc5)o4)s3)c2)[C@H](O)[C@@H](O)[C@@H]1O [Example 37, (2S,3R,4R,5S,6R)-2-(4-Chloro-3-((5-(5-phenylfuran-2-yl)-1,3,4-thiadiazol-2-yl)methyl)phenyl)-6-(hydroxymethyl)-tetrahydro-2H-pyran-3,4,5-triol] | 10.6
6 | OC[C@H]1O[C@@H](c2ccc(Cl)c(Cc3nnc(CC(F)(F)F)s3)c2)[C@H](O)[C@@H](O)[C@@H]1O [Example 39, (2S,3R,4R,5S,6R)-2-(4-Chloro-3-((5-(2,2,2-trifluoroethyl)-1,3,4-thiadiazol-2-yl)methyl)phenyl)-6-(hydroxymethyl)tetrahydro-2H-pyran-3,4,5-triol] | 758
7 | CCCCc1nnc(Cc2cc([C@@H]3O[C@H](CO)[C@@H](O)[C@H](O)[C@H]3O)ccc2Cl)s1 [Example 32, (2S,3R,4R,5S,6R)-2-(3-((5-Butyl-1,3,4-thiadiazol-2-yl)methyl)-4-chlorophenyl)-6-(hydroxymethyl)-tetrahydro-2H-pyran-3,4,5-triol] | 379
8 | OC[C@H]1OC(c2ccc(Cl)c(Cc3nnc(-c4ccncc4)s3)c2)[C@H](O)[C@@H](O)[C@@H]1O (stereo partly drawn) [Example 20, (3R,4R,5S,6R)-2-(4-Chloro-3-((5-(pyridin-4-yl)-1,3,4-thiadiazol-2-yl)methyl)phenyl)-6-(hydroxymethyl)-tetrahydro-2H-pyran-3,4,5-triol] | 53
9 | OC[C@H]1O[C@@H](c2ccc(Cl)c(Cc3nnc(-c4cscn4)s3)c2)[C@H](O)[C@@H](O)[C@@H]1O [Example 13, (2S,3R,4R,5S,6R)-2-(4-Chloro-3-((5-(thiazol-4-yl)-1,3,4-thiadiazol-2-yl)methyl)phenyl)-6-(hydroxymethyl)tetrahydro-2H-pyran-3,4,5-triol] | 21.8
10 | CCCCCCCc1nnc(Cc2cc([C@@H]3O[C@H](CO)[C@@H](O)[C@H](O)[C@H]3O)ccc2Cl)s1 [Example 34, (2S,3R,4R,5S,6R)-2-(4-Chloro-3-((5-heptyl-1,3,4-thiadiazol-2-yl)methyl)phenyl)-6-(hydroxymethyl)-tetrahydro-2H-pyran-3,4,5-triol] | 122
11 | Cc1cccc(-c2nnc(Cc3cc([C@@H]4O[C@H](CO)[C@@H](O)[C@H](O)[C@H]4O)ccc3Cl)s2)n1 [Example 44, (2S,3R,4R,5S,6R)-2-(4-Chloro-3-((5-(6-methylpyridin-2-yl)-1,3,4-thiadiazol-2-yl)methyl)phenyl)-6-(hydroxymethyl)-tetrahydro-2H-pyran-3,4,5-triol] | 638
12 | CSc1nnc(Cc2cc([C@@H]3O[C@H](CO)[C@@H](O)[C@H](O)[C@H]3O)ccc2Cl)s1 [Example 40, (2S,3R,4R,5S,6R)-2-(4-Chloro-3-((5-(methylthio)-1,3,4-thiadiazol-2-yl)methyl)phenyl)-6-(hydroxymethyl)-tetrahydro-2H-pyran-3,4,5-triol] | 10.9
13 | OC[C@H]1O[C@@H](c2ccc(Cl)c(Cc3nnc(-c4ccc(Cl)s4)s3)c2)[C@H](O)[C@@H](O)[C@@H]1O [Example 8, (2S,3R,4R,5S,6R)-2-(4-Chloro-3-((5-(5-chlorothiophen-2-yl)-1,3,4-thiadiazol-2-yl)methyl)phenyl)-6-(hydroxymethyl)-tetrahydro-2H-pyran-3,4,5-triol] | 18.2
14 | OC[C@H]1O[C@@H](c2ccc(Cl)c(Cc3nnc(C(F)(F)F)s3)c2)[C@H](O)[C@@H](O)[C@@H]1O [Example 38, (2S,3R,4R,5S,6R)-2-(4-Chloro-3-((5-(trifluoromethyl)-1,3,4-thiadiazol-2-yl)methyl)phenyl)-6-(hydroxymethyl)tetrahydro-2H-pyran-3,4,5-triol] | 155
15 | CC1CCC(Cc2nnc(Cc3cc(C4O[C@H](CO)[C@@H](O)[C@H](O)[C@H]4O)ccc3Cl)s2)CC1 (stereo partly drawn) [Example 25, (3R,4R,5S,6R)-2-(4-Chloro-3-((5-((4-methylcyclohexyl)methyl)-1,3,4-thiadiazol-2-yl)methyl)phenyl)-6-(hydroxymethyl)-tetrahydro-2H-pyran-3,4,5-triol] | 460
16 | OC[C@H]1O[C@@H](c2ccc(Cl)c(Cc3nnc(-c4cc5ccccc5s4)s3)c2)[C@H](O)[C@@H](O)[C@@H]1O [Example 6, (2S,3R,4R,5S,6R)-2-(3-((5-(Benzo[b]thiophen-2-yl)-1,3,4-thiadiazol-2-yl)methyl)-4-chlorophenyl)-6-(hydroxymethyl)-tetrahydro-2H-pyran-3,4,5-triol] | 44.5

Further lines, results first:

Row | IC50 [nM] | SMILES
17 | 61.3 | OC[C@H]1O[C@@H](c2ccc(Cl)c(Cc3ccc(-c4ccoc4)nn3)c2)[C@H](O)[C@@H](O)[C@@H]1O [Example 63, (2S,3R,4R,5S,6R)-2-(4-Chloro-3-((6-(furan-3-yl)pyridazin-3-yl)methyl)phenyl)-6-(hydroxymethyl)-tetrahydro-2H-pyran-3,4,5-triol]
18 | 24.9 | COc1cnc(Cc2cc([C@@H]3O[C@H](CO)[C@@H](O)[C@H](O)[C@H]3O)ccc2Cl)nn1 [Example 91, (2S,3R,4R,5S,6R)-2-(4-Chloro-3-((6-methoxy-1,2,4-triazin-3-yl)methyl)phenyl)-6-(hydroxymethyl)tetrahydro-2H-pyran-3,4,5-triol]
19 | 201 | COC(=O)c1ccc(Cc2cc([C@@H]3O[C@H](CO)[C@@H](O)[C@H](O)[C@H]3O)ccc2Cl)nn1 [Example 49, Methyl 6-(2-chloro-5-((2S,3R,4R,5S,6R)-3,4,5-trihydroxy-6-(hydroxymethyl)-tetrahydro-2H-pyran-2-yl)benzyl)pyridazine-3-carboxylate]
20 | 71.3 | CCSc1ccc(Cc2cc([C@@H]3O[C@H](CO)[C@@H](O)[C@H](O)[C@H]3O)ccc2Cl)nn1 [Example 80, (2S,3R,4R,5S,6R)-2-(4-Chloro-3-((6-(ethylthio)pyridazin-3-yl)methyl)phenyl)-6-(hydroxymethyl)-tetrahydro-2H-pyran-3,4,5-triol]
21 | 618 | Cc1cc(Cc2cc([C@@H]3O[C@H](CO)[C@@H](O)[C@H](O)[C@H]3O)ccc2Cl)n[nH]c1=O [Example 83, 6-(2-Chloro-5-((2S,3R,4R,5S,6R)-3,4,5-trihydroxy-6-(hydroxymethyl)-tetrahydro-2H-pyran-2-yl)benzyl)-4-methylpyridazin-3(2H)-one]
22 | 36.4 | Cc1cc(-c2nnc(Cc3cc([C@@H]4O[C@H](CO)[C@@H](O)[C@H](O)[C@H]4O)ccc3Cl)s2)ccn1 [Example 45, (2S,3R,4R,5S,6R)-2-(4-Chloro-3-((5-(2-methylpyridin-4-yl)-1,3,4-thiadiazol-2-yl)methyl)phenyl)-6-(hydroxymethyl)-tetrahydro-2H-pyran-3,4,5-triol]
23 | 261 | OC[C@H]1O[C@@H](c2ccc(Cl)c(Cc3nccnn3)c2)[C@H](O)[C@@H](O)[C@@H]1O [Example 89, (2S,3R,4R,5S,6R)-2-(3-((1,2,4-triazin-3-yl)methyl)-4-chlorophenyl)-6-(hydroxymethyl)tetrahydro-2H-pyran-3,4,5-triol]
24 | 700 | OC[C@H]1O[C@@H](c2ccc(Cl)c(Cc3ccc(N4CCOCC4)nn3)c2)[C@H](O)[C@@H](O)[C@@H]1O [Example 84, (2S,3R,4R,5S,6R)-2-(4-Chloro-3-((6-morpholinopyridazin-3-yl)methyl)phenyl)-6-(hydroxymethyl)-tetrahydro-2H-pyran-3,4,5-triol]
25 | 82.7 | OC[C@H]1O[C@@H](c2ccc(Cl)c(Cc3ccc(-c4ccc5c(c4)OCO5)nn3)c2)[C@H](O)[C@@H](O)[C@@H]1O [Example 67, (2S,3R,4R,5S,6R)-2-(3-((6-(Benzo[d][1,3]dioxol-5-yl)pyridazin-3-yl)methyl)-4-chlorophenyl)-6-(hydroxymethyl)-tetrahydro-2H-pyran-3,4,5-triol]
